Laboratory results from patent US20090104246A1 (priority 2004, published 2009).

How the values were obtained:
[1] = tested on: human coronary artery smooth muscle cells; assay: Anti-proliferative activity in synchronized cultured human coronary artery smooth muscle cells stimulated with two percent fetal bovine serum; assay type: cell-based; conditions: for effect on the anti-proliferative rapamycin dose response curve: agent added to rapamycin-treated synchronized cells, topotecan to 300 nanomolar, etoposide to eight hundred nanomolar, Panzem to 100 micromolar
Excerpt: (§1) The multiple curves represent various concentrations of topotecan ranging from zero to three hundred nanomolar concentrations.
(§2) The multiple curves represent various concentrations of etoposide ranging from zero to eight hundred nanomolar concentrations.
The multiple curves represent various concentrations of Panzem® ranging from zero to 100 micromolar concentrations.

cell viability = assay: Cell viability assay; assay type: cell-based
Excerpt: as §1, §2

[2] = tested on: human coronary artery smooth muscle cell survival; conditions: 6.6 nanomolar to 30,000.00 nanomolar
Excerpt: In vitro cytotoxicity tests or assays may be utilized to determine if drugs, agents and/or compounds are potentially toxic and the level of toxicity. Essentially, in vitro cytotoxicity assays determine acute necrotic effects by a drug causing direct cellular damage. The idea behind these assays is that toxic chemicals affect basic functions of cells which are common to all cells. […] There are a number of different assays that may be utilized. In the present invention, the cytotoxicity assay utilized is based upon the measurement of cellular metabolic activity. A reduction in metabolic activity is an indication of cellular damage. Tests that can measure metabolic function measure cellular ATP levels or mitochondrial activity via MTS metabolism. FIG. 69 is a graphical representation of the results of an MTS assay of Panzem®.

[3] = Liquid formulations of sirolimus with PEG 200, ethanol and water; concentrations by liquid chromatography; assay type: physicochemical; conditions: 4 mg/ml formulation with PEG 200, ethanol and water
Excerpt: In accordance with exemplary embodiments of the present invention, a series of liquid formulations were developed for the local or regional delivery of water insoluble compounds such as sirolimus and its analogs, including CCl-779, ABT-578 and everolimus, through weeping balloons and catheter injection needles. […] These liquid formulations increase the apparent solubility of the pharmacologically active but water insoluble compounds by two to four orders of magnitude as compared to the solubility limits of the compounds in water. These liquid formulations rely on the use of a very small amount of organic solvents such as Ethanol (typically less than two percent) and a larger amount of safe amphiphilic (of or relating to a molecule having a polar, water soluble group attached to a non-polar, water insoluble […]) excipients such as polyethylene glycol (PEG 200, PEG 400) and vitamin E TPGS to enhance the solubility of the compounds. These liquid formulations of highly water insoluble compounds are stable and readily flowable at room temperature. Certain excipients, such as Vitamin E TPGS and BHT may be utilized to enhance the storage stability of sirolimus compounds through their anti-oxidation properties. […]

[4] = tested on: human coronary artery smooth muscle cells; assay: Anti-proliferative activity in non-synchronized cultured human coronary artery smooth muscle cells stimulated with two percent fetal bovine serum; assay type: cell-based; conditions: for effect on the anti-proliferative rapamycin dose response curve: agent added to rapamycin-treated non-synchronized cells, mycophenolic acid zero to one thousand nanomolar, cladribine zero to nine hundred nanomolar
Excerpt: The multiple curves represent various concentrations of mycophenolic acid ranging from zero to one thousand nanomolar concentrations.
FIG. 58 illustrates, in graphical format, the anti-proliferative activity of cladribine in non-synchronized cultured human coronary artery smooth muscle cells stimulated with two percent fetal bovine serum.
The multiple curves represent various concentrations of cladribine ranging from zero to nine hundred nanomolar concentrations.

[5] = In vivo release kinetics from rapamycin/mycophenolic acid EVA/BMA coating, porcine pharmacokinetics studies; conditions: 180 micrograms each of rapamycin and mycophenolic acid in 600 microgram basecoat, with or without BMA topcoat
[6] = In vivo release kinetics from rapamycin/cladribine EVA/BMA coating on Bx Velocity stents, Yorkshire pigs; design: species or system porcine; conditions: 600 microgram basecoat, 200 microgram BMA topcoat
Excerpt: (§3) The basecoat is applied to Bx Velocity® stents and implanted into Yorkshire pigs.
as §3

[7] = tested on: human smooth muscle cells; assay: Cladribine Example, PDGF-stimulated cell proliferation (cell count), smooth muscle cells; assay type: cell-based; conditions: from the IC50 values
Description: To assess the ability of cladribine to prevent cell proliferation, human smooth muscle or endothelial cells (Clonetics, Walkersville, Md.) were seeded at a density of 2000 cells/cm^2 (approximately 3600 cells/well) into each well of 12-well plates and cultured with 1.5 ml of growth medium containing five percent fetal calf serum (FCS). After twenty-four hours, the growth medium was changed and fresh medium containing 10 ng/ml platelet-derived growth factor AB (PDGF AB; LIFE Technologies), as well as various concentrations of cladribine (0.001-10,000 nM) were added with triplicate wells. Medium was replaced with fresh cladribine-containing medium after three days. On day six, cells were detached by trypsinization to yield a cell suspension, lightly centrifuged to pellet and then counted manually using a Neubauer hemocytometer system. Cell viability was assessed by trypan blue exclusion.

tumor cell lines = conditions: cited from earlier work
[8] = tested on: human coronary artery smooth muscle cell proliferation; assay: In vitro cell culture study of coronary artery smooth muscle cell proliferation; assay type: cell-based
Excerpt: FIG. 51 is a graph of the inhibition of coronary artery smooth muscle cells by trichostatin A in a cell culture study.

In the case of `COc1cc([C@@H]2c3cc4c(cc3[C@@H](O[C@@H]3O[C@@H]5CO[C@@H](C)O[C@H]5[C@H](O)[C@H]3O)[C@H]3COC(=O)[C@H]23)OCO4)cc(OC)c1O` [Etoposide, etoposide], the “effect on the anti-proliferative rapamycin dose response curve” value (“effect” below) [1] is reported as “potentiate the anti-proliferative activity of rapamycin” and the “cytotoxicity in cell viability assay” value (cell viability; concentrations up to ten micromolar) is reported as “non-cytotoxic”.

For `CC[C@@]1(O)C(=O)OCc2c1cc1n(c2=O)Cc2cc3c(CN(C)C)c(O)ccc3nc2-1` [Topotecan, topotecan], the “effect” value [1] was “potentiate the anti-proliferative activity of rapamycin” and the “cytotoxicity in cell viability assay” value (cell viability; concentrations up to one micromolar) was “non-cytotoxic”.

For `COc1cc2c(cc1O)CC[C@@H]1[C@@H]2CC[C@]2(C)[C@@H](O)CC[C@@H]12` [Panzem®, 2-methoxyestradiol], the “effect” value [1] was “increases the percent of inhibition of rapamycin alone”, the anti-proliferative activity alone ([1]; synchronized cells, two percent fetal bovine serum) was “extremely effective inhibitor” and the “cytotoxicity (MTS assay)” value [2] was “do not reduce human coronary artery smooth muscle cell survival”.

In the case of `CO[C@H]1C[C@@H]2CC[C@@H](C)[C@@](O)(O2)C(=O)C(=O)N2CCCC[C@H]2C(=O)O[C@H]([C@H](C)C[C@@H]2CC[C@@H](O)[C@H](OC)C2)CC(=O)[C@H](C)/C=C(\C)[C@@H](O)[C@@H](OC)C(=O)[C@H](C)C[C@H](C)/C=C/C=C/C=C/1C` [Rapamycin, rapamycin], the “concentration relative to the solubility of sirolimus in water” value [3] is reported as “about four hundred to about one thousand times higher”.

In the case of `COc1c(C)c2c(c(O)c1C/C=C(\C)CCC(=O)O)C(=O)OC2` [mycophenolic acid], the “effect” value [4] is reported as “potentiates the anti-proliferative activity of rapamycin” and the “in vivo elution from EVA/BMA basecoat compared with rapamycin” value [5] is reported as “elutes more completely over a shorter duration than the rapamycin”.

In the case of `Nc1nc(Cl)nc2c1ncn2[C@H]1C[C@H](O)[C@@H](CO)O1` [Cladribine, 2-chlorodeoxyadenosine], the “effect” value [4] is reported as “potentiate the anti-proliferative activity of rapamycin”, the “inhibition of human coronary artery smooth muscle cell proliferation” value ([4]; non-synchronized cells, two percent fetal bovine serum) is reported as “completely inhibits” and the “in vivo elution from EVA/BMA basecoat compared with rapamycin” value [6] is reported as “elutes more rapidly than rapamycin”. For the same compound, the “potency on smooth muscle cells relative to endothelial cells” value [7] was “approximately twice as potent”.

In the case of `CC(/C=C/C(=O)NO)=C\[C@@H](C)C(=O)c1ccc(N(C)C)cc1` [trichostatin A], the “anti-proliferative IC50” value (tumor cell lines) is given as “low nM range”, the IC50 ([8]; human coronary artery smooth muscle cells, read-out: anti-proliferative IC50) is given as about 6 nM and the “inhibition of human coronary artery smooth muscle cell proliferation” value ([8]; in vitro cell culture) is given as “completely inhibit”.
